Each compound was assayed against Acetylcholinesterase (Electrophorus electricus, UniProt O42275).
Chain of Acetylcholinesterase (O42275 whole entry): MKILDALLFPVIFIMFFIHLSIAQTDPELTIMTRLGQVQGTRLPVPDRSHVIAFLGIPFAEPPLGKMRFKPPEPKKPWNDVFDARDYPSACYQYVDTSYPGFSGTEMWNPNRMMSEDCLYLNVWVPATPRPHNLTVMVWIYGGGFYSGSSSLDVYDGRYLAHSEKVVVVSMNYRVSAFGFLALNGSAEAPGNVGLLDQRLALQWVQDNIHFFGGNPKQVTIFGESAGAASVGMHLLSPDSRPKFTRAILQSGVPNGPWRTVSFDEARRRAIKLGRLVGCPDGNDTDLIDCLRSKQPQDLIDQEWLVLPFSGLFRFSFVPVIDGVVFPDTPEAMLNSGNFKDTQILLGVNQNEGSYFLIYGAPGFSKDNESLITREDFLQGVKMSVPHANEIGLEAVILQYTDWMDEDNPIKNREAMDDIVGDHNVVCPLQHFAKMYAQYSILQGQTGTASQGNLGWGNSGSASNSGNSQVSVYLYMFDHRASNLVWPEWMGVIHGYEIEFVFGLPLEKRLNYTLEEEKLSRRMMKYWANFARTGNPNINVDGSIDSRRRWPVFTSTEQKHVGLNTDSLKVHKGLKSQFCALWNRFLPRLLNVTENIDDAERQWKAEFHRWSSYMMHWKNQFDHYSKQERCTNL
Description: Inhibition of Electric eel AChE assessed as amount of thiocholine released using acetylthiocholine iodide as substrate after 6 mins by Ellman's method

CN(C)CCc1c(C(c2c[nH]c3ccccc23)C(O)CO)[nH]c2ccc(O)cc12 (stereo not given) and NCCc1c(C(c2c[nH]c3ccccc23)C(O)CO)[nH]c2ccc(O)cc12 (stereo not given) are within 1.5-fold of each other in IC50: 11.7 µM for the first, 12.7 µM for the second.

CNCCc1c[nH]c2ccc(OC)cc12 and COc1ccc2[nH]cc(CCN(C)C)c2c1 [MEBUFOTENIN] are within 1.5-fold of each other in IC50: 12.5 µM for the first, 14 µM for the second.

CN(C)CCc1c[nH]c2ccc(O)cc12 [BUFOTENINE] showed an IC50 of 11.4 µM.

Source: ChEMBL document CHEMBL3124840, “Chemical composition of the bark of Tetrapterys mucronata and identification of acetylcholinesterase inhibitory constituents” (J Nat Prod, 2014)
